Structures can show the parent of a compound that is named as a salt.
Assays:
ISC-enriched organoids [1] = experiment: Primary screen, 384-well 2.5-D organoid differentiation (ENR+CD, 6 days): basal lysozyme secretion (LYZ.NS); format: cell-based, murine; conditions: for Dose.FC.LYZ.NS: FC vs plate median
Text: (§1) High-throughput screening.

ISC-enriched organoids [2] = experiment: Primary screen, 384-well 2.5-D organoid differentiation (ENR+CD, 6 days): carbachol-induced lysozyme secretion (LYZ.S); format: cell-based, murine; conditions: primary screen; for Dose.FC.LYZ.S: FC vs plate median; for Z.LYZ.S: standard z score
Text: as §1

ISC-enriched organoids [3] = experiment: Primary screen, 384-well 2.5-D organoid differentiation (ENR+CD, 6 days, Target Selective Inhibitor Library, vs whole-plate median): ATP (CellTiter-Glo 3D, CTG); conditions: for Dose.FC.CTG: FC vs plate median; for SSMD.CTG: strictly standardized mean difference
[4] = Dose 0.08 uM, standard z score of FC
[5] = Dose 0.40 uM, standard z score of FC
[6] = Dose 2.00 uM, standard z score of FC
[7] = Dose 10.00 uM, standard z score of FC
[8] = strictly standardized mean difference, primary screen, 1st of the 4 dose lines of the treatment (dose not given)
[9] = strictly standardized mean difference, primary screen, 2nd of the 4 dose lines of the treatment (dose not given)
[10] = strictly standardized mean difference, primary screen, 3rd of the 4 dose lines of the treatment (dose not given)
[11] = strictly standardized mean difference, primary screen, 4th of the 4 dose lines of the treatment (dose not given)
[12] = primary screen, 1st of the 4 dose lines of the treatment (dose not given)
[13] = primary screen, 2nd of the 4 dose lines of the treatment (dose not given)
[14] = primary screen, 3rd of the 4 dose lines of the treatment (dose not given)
[15] = primary screen, 4th of the 4 dose lines of the treatment (dose not given)
[16] = primary screen, dose 0.40 uM, standard z score of FC
[17] = primary screen, dose 0.08 uM, standard z score of FC
[18] = primary screen, dose 2.00 uM, standard z score of FC
[19] = primary screen, dose 10.00 uM, standard z score of FC
[20] = primary screen, dose 0.08 uM, ENR+CD 6 days
[21] = primary screen, dose 0.40 uM, ENR+CD 6 days
[22] = primary screen, dose 2.00 uM, ENR+CD 6 days
[23] = primary screen, dose 10.00 uM, ENR+CD 6 days
[24] = Dose 0.08 uM, primary screen, standard z score
[25] = Dose 0.40 uM, primary screen, standard z score
[26] = Dose 2.00 uM, primary screen, standard z score
[27] = Dose 10.00 uM, primary screen, standard z score

O=[N+]([O-])C=Cc1ccc2c(c1)OCO2
Dose.FC.LYZ.NS (ISC-enriched organoids [1]; Dose 0.08 uM, primary screen): 0.057 log 2 fold change
Z.LYZ.NS (ISC-enriched organoids [1]; [4]): 0.499
Dose.FC.LYZ.NS (ISC-enriched organoids [1]; Dose 0.40 uM, primary screen): −0.010 log 2 fold change
Z.LYZ.NS (ISC-enriched organoids [1]; [5]): −0.088
Dose.FC.LYZ.NS (ISC-enriched organoids [1]; Dose 2.00 uM, primary screen): 0.040 log 2 fold change
Z.LYZ.NS (ISC-enriched organoids [1]; [6]): 0.347
Dose.FC.LYZ.NS (ISC-enriched organoids [1]; Dose 10.00 uM, primary screen): −0.150 log 2 fold change
Z.LYZ.NS (ISC-enriched organoids [1]; [7]): −1.307
SSMD.LYZ.NS (ISC-enriched organoids [1]; [8]): 0.518
SSMD.LYZ.NS (ISC-enriched organoids [1]; [9]): −0.082
SSMD.LYZ.NS (ISC-enriched organoids [1]; [10]): 0.270
SSMD.LYZ.NS (ISC-enriched organoids [1]; [11]): −0.670
Dose.FC.LYZ.S (ISC-enriched organoids [2]; Dose 0.08 uM): 0.076 log 2 fold change
Dose.FC.LYZ.S (ISC-enriched organoids [2]; Dose 0.40 uM): 0.100 log 2 fold change
Dose.FC.LYZ.S (ISC-enriched organoids [2]; Dose 2.00 uM): 0.019 log 2 fold change
Dose.FC.LYZ.S (ISC-enriched organoids [2]; Dose 10.00 uM): −0.179 log 2 fold change
Z.LYZ.S (ISC-enriched organoids [2]; 1st of the 4 dose lines of the treatment (dose not given)): 0.493
Z.LYZ.S (ISC-enriched organoids [2]; 2nd of the 4 dose lines of the treatment (dose not given)): 0.648
Z.LYZ.S (ISC-enriched organoids [2]; 3rd of the 4 dose lines of the treatment (dose not given)): 0.124
Z.LYZ.S (ISC-enriched organoids [2]; 4th of the 4 dose lines of the treatment (dose not given)): −1.157
SSMD.LYZ.S (ISC-enriched organoids [2]; strictly standardized mean difference, 1st of the 4 dose lines of the treatment (dose not given)): 0.451
SSMD.LYZ.S (ISC-enriched organoids [2]; strictly standardized mean difference, 2nd of the 4 dose lines of the treatment (dose not given)): 0.331
SSMD.LYZ.S (ISC-enriched organoids [2]; strictly standardized mean difference, 3rd of the 4 dose lines of the treatment (dose not given)): 0.073
SSMD.LYZ.S (ISC-enriched organoids [2]; strictly standardized mean difference, 4th of the 4 dose lines of the treatment (dose not given)): −0.676
Dose.FC.CTG (ISC-enriched organoids [3]; Dose 0.08 uM, primary screen): −0.016 log 2 fold change
Z.CTG (ISC-enriched organoids [3]; [4]): −0.037
Dose.FC.CTG (ISC-enriched organoids [3]; Dose 0.40 uM, primary screen): 0.061 log 2 fold change
Z.CTG (ISC-enriched organoids [3]; [5]): 0.146
Dose.FC.CTG (ISC-enriched organoids [3]; Dose 2.00 uM, primary screen): 0.062 log 2 fold change
Z.CTG (ISC-enriched organoids [3]; [6]): 0.148
Dose.FC.CTG (ISC-enriched organoids [3]; Dose 10.00 uM, primary screen): −0.197 log 2 fold change
Z.CTG (ISC-enriched organoids [3]; [7]): −0.469
SSMD.CTG (ISC-enriched organoids [3]; [12]): −0.026
SSMD.CTG (ISC-enriched organoids [3]; [13]): 0.148
SSMD.CTG (ISC-enriched organoids [3]; [14]): 0.166
SSMD.CTG (ISC-enriched organoids [3]; [15]): −0.338

CCN(CC)C(=O)c1ccc(C2=CC3(CCNCC3)Oc3cccc(O)c32)cc1 [ADL5859 HCl]
Z.LYZ.NS (ISC-enriched organoids [1]; [16]): 0.163
Z.CTG (ISC-enriched organoids [3]; [17]): 0.645
Z.CTG (ISC-enriched organoids [3]; [16]): 0.389
Z.CTG (ISC-enriched organoids [3]; [18]): 0.695
Z.CTG (ISC-enriched organoids [3]; [19]): 0.465

COc1cc(CCc2cc(NC(=O)c3ccc(N4CC(C)NC(C)C4)cc3)n[nH]2)cc(OC)c1 (centres unmarked) [AZD4547]
Dose.FC.LYZ.S (ISC-enriched organoids [2]; dose 0.08 uM, ENR+CD 6 days): 0.157 log 2 fold change
Dose.FC.LYZ.S (ISC-enriched organoids [2]; dose 0.40 uM, ENR+CD 6 days): 0.083 log 2 fold change
Dose.FC.LYZ.S (ISC-enriched organoids [2]; dose 2.00 uM, ENR+CD 6 days): 0.074 log 2 fold change
Dose.FC.LYZ.S (ISC-enriched organoids [2]; dose 10.00 uM, ENR+CD 6 days): −0.049 log 2 fold change
Dose.FC.CTG (ISC-enriched organoids [3]; [20]): 0.160 log 2 fold change
Z.CTG (ISC-enriched organoids [3]; [17]): 0.382
Dose.FC.CTG (ISC-enriched organoids [3]; [21]): 0.101 log 2 fold change
Z.CTG (ISC-enriched organoids [3]; [16]): 0.241
Dose.FC.CTG (ISC-enriched organoids [3]; [22]): −0.010 log 2 fold change
Z.CTG (ISC-enriched organoids [3]; [18]): −0.024
Dose.FC.CTG (ISC-enriched organoids [3]; [23]): −0.062 log 2 fold change
Z.CTG (ISC-enriched organoids [3]; [19]): −0.147

CC(C)(C#N)c1cc(Cn2cncn2)cc(C(C)(C)C#N)c1 [Anastrozole]
SSMD.LYZ.S (ISC-enriched organoids [2]; strictly standardized mean difference of replicates, four lines per treatment = four doses (dose not given), column head inferred): 0.304
Z.CTG (ISC-enriched organoids [3]; [17]): −0.279
Z.CTG (ISC-enriched organoids [3]; [16]): 0.057
Z.CTG (ISC-enriched organoids [3]; [18]): −0.139
Z.CTG (ISC-enriched organoids [3]; [19]): −1.191

CC(C)C[C@H](NC(=O)[C@H](Cc1ccccc1)NC(=O)c1cnccn1)B(O)O [Bortezomib (PS-341)]
Dose.FC.LYZ.S (ISC-enriched organoids [2]; dose 0.08 uM, ENR+CD 6 days): −0.239 log 2 fold change
Dose.FC.LYZ.S (ISC-enriched organoids [2]; dose 0.40 uM, ENR+CD 6 days): −0.173 log 2 fold change
Dose.FC.LYZ.S (ISC-enriched organoids [2]; dose 2.00 uM, ENR+CD 6 days): −0.249 log 2 fold change
Dose.FC.LYZ.S (ISC-enriched organoids [2]; dose 10.00 uM, ENR+CD 6 days): −0.238 log 2 fold change
Dose.FC.CTG (ISC-enriched organoids [3]; [20]): −1.904 log 2 fold change
Z.CTG (ISC-enriched organoids [3]; [17]): −4.547
Dose.FC.CTG (ISC-enriched organoids [3]; [21]): −2.146 log 2 fold change
Z.CTG (ISC-enriched organoids [3]; [16]): −5.127
Dose.FC.CTG (ISC-enriched organoids [3]; [22]): −0.915 log 2 fold change
Z.CTG (ISC-enriched organoids [3]; [18]): −2.185
Dose.FC.CTG (ISC-enriched organoids [3]; [23]): −1.359 log 2 fold change
Z.CTG (ISC-enriched organoids [3]; [19]): −3.246

CCOc1nc2cccc(C(=O)O)c2n1Cc1ccc(-c2ccccc2-c2nnn[nH]2)cc1 [Candesartan]
SSMD.LYZ.NS (ISC-enriched organoids [1]; primary screen, strictly standardized mean difference of replicates, four lines per treatment = four doses (dose not given), column head inferred): −0.474
Z.CTG (ISC-enriched organoids [3]; [5]): −0.299
Z.CTG (ISC-enriched organoids [3]; [6]): −0.473
Z.CTG (ISC-enriched organoids [3]; [7]): −0.604

C=CC(=O)N1CCC[C@@H](n2nc(-c3ccc(Oc4ccccc4)cc3)c3c(N)ncnc32)C1 [Ibrutinib (PCI-32765)]
Dose.FC.LYZ.NS (ISC-enriched organoids [1]; Dose 0.08 uM, primary screen): −0.071 log 2 fold change
Z.LYZ.NS (ISC-enriched organoids [1]; [24]): −0.619
Dose.FC.LYZ.NS (ISC-enriched organoids [1]; Dose 0.40 uM, primary screen): −0.141 log 2 fold change
Z.LYZ.NS (ISC-enriched organoids [1]; [25]): −1.225
Dose.FC.LYZ.NS (ISC-enriched organoids [1]; Dose 2.00 uM, primary screen): −0.202 log 2 fold change
Z.LYZ.NS (ISC-enriched organoids [1]; [26]): −1.763
Dose.FC.LYZ.NS (ISC-enriched organoids [1]; Dose 10.00 uM, primary screen): −0.199 log 2 fold change
Z.LYZ.NS (ISC-enriched organoids [1]; [27]): −1.737
SSMD.LYZ.NS (ISC-enriched organoids [1]; [8]): −0.704
SSMD.LYZ.NS (ISC-enriched organoids [1]; [9]): −1.031
SSMD.LYZ.NS (ISC-enriched organoids [1]; [10]): −1.175
SSMD.LYZ.NS (ISC-enriched organoids [1]; [11]): −1.325
Dose.FC.CTG (ISC-enriched organoids [3]; Dose 0.08 uM, primary screen): −0.027 log 2 fold change
Z.CTG (ISC-enriched organoids [3]; [24]): −0.065
Dose.FC.CTG (ISC-enriched organoids [3]; Dose 0.40 uM, primary screen): −0.466 log 2 fold change
Z.CTG (ISC-enriched organoids [3]; [25]): −1.112
Dose.FC.CTG (ISC-enriched organoids [3]; Dose 2.00 uM, primary screen): −0.521 log 2 fold change
Z.CTG (ISC-enriched organoids [3]; [26]): −1.244
Dose.FC.CTG (ISC-enriched organoids [3]; Dose 10.00 uM, primary screen): −0.931 log 2 fold change
Z.CTG (ISC-enriched organoids [3]; [27]): −2.224
SSMD.CTG (ISC-enriched organoids [3]; [12]): −0.062
SSMD.CTG (ISC-enriched organoids [3]; [13]): −0.574
SSMD.CTG (ISC-enriched organoids [3]; [14]): −1.005
SSMD.CTG (ISC-enriched organoids [3]; [15]): −0.875
